Assay results taken from patent US5773414A, “Endothelin antagonists” (Warner-Lambert Company, priority 1997, dated 1998).
pIC50: −log10 of the molar value. Counter-ions that a name gives are not always drawn. Square brackets hold non-standard residues; d marks the D form. Peptide text beside a SMILES is read from it. * marks the point of attachment. dDip = N[C@@H](C(=O)O)C(c1ccccc1)c1ccccc1; Fmoc = O=C(OCC1c2ccccc2-c2ccccc21)*; Cyclohexylacetyl = O=C(CC1CCCCC1)*; Orn = NCCC[C@H](N)C(=O)O; Propionyl = CCC(=O)*; Tfa = O=C(C(F)(F)F)*

Columns and labels:
ETA = biological target: T1, ETA (Oryctolagus cuniculus, UniProt A5A8K3); assay: Endothelin Receptor Binding Assay-A (ETA), intact cell binding of [125I]-ET-1; parameters: species or system rabbit; conditions: Table IIa; for pIC50: rabbit renal artery vascular smooth muscle cells, read-out: Binding Assay IC50 at Receptor Subtypes ETA
T1 construct: The cells used were rabbit renal artery vascular smooth muscle cells; endogenous in cells; host or cells: rabbit renal artery vascular smooth muscle cells
T1 sequence (A5A8K3 21-427): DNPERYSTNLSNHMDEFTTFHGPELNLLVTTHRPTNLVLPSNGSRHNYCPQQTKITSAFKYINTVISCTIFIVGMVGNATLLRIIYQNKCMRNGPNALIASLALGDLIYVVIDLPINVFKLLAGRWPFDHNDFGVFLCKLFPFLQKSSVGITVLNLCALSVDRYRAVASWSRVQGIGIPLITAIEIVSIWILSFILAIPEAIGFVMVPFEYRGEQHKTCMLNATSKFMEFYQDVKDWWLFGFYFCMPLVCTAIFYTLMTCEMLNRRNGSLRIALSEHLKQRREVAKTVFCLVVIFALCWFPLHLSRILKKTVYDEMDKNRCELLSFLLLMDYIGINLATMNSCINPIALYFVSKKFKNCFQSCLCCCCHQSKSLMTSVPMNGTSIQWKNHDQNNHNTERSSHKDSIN
Description: The cells used were rabbit renal artery vascular smooth muscle cells grown in a 48-well dish (1 cm^2) (confluent cells).
The growth media was Dulbeccos Modified Eagles/Ham's F12 which contained 10 fetal bovine serum and antibiotics (penicillin/streptomycin/fungizone).
Second, remove the assay buffers, place the dish on ice, and add 150 μL of cold assay buffer described above to each well. […] Next, place dish in a 37° C. water bath for about 2 hours and gently agitate the dish every 15 minutes. Discard the radioactive incubation mixture in the sink and wash wells 3 times with 1 mL of cold phosphate buffered saline. Last, add […] of 0.25M sodium hydroxide, agitate for 1 hour on rotator, and then transfer the sodium hydroxide extract to gamma counting tubes and count the radioactivity.

ETB = biological target: T2, ETB (Rattus norvegicus, UniProt P21451); assay: Endothelin Receptor Binding Assay-B (ETB), [125I]-ET-1 binding in rat cerebellar membranes; conditions: Table IIa; for pIC50: rat cerebellar membranes, read-out: Binding Assay IC50 at Receptor Subtypes ETB
T2 construct: thaw one aliquot of frozen rat cerebellar membranes; from tissue; host or cells: rat cerebellar membranes
T2 sequence (P21451 27-442): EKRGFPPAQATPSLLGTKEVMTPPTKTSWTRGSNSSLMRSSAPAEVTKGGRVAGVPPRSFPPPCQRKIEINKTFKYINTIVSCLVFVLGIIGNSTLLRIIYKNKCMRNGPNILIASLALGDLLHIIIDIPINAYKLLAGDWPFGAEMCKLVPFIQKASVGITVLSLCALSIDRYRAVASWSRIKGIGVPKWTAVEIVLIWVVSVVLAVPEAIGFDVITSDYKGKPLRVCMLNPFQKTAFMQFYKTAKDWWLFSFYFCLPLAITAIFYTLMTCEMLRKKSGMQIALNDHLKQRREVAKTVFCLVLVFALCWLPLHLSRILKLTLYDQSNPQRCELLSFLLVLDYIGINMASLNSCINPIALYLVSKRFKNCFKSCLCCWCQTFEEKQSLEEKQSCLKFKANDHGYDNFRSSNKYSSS
Description: The tissue is made up of 20 mM tris(hydroxymethyl)aminomethane hydrochloride (Trizma) buffer, 2 mM ethylenediaminetetraacetate, 100 μM phenylmethylsulfonyl fluoride.
First, thaw one aliquot of frozen rat cerebellar membranes (2 mg protein in 0.5 mL). Next, add 0.5 mL membrane aliquot to 4.5 mL cold tissue buffer, polytron at 7,500 revolutions per minute for 10 seconds. Finally, dilute tissue suspension 1/100 (0.1 mL suspension+9.9 mL tissue buffer), polytron again, and place ice.
Mix in 150 μL of tissue to each tube, vortex briefly, then tap to force all liquids to bottom (total assay volume=250 μL). Then place the tubes in a 37° C. water bath for 2 hours.
Add 2.5 mL cold water buffer (50 mM Trizma buffer) to each tube, filter, and then wash tube with additional 2.5 mL wash buffer and add to filter. Finally, wash filters with an additional 2.5 mL of cold wash buffer.
Count filters for radioactivity in gamma counter.

Row | Structure (SMILES) | pIC50 (ETA) | pIC50 (ETB) | inhibition at 10 µM (ETA; @ 10 μM, read-out: Binding Assay % Inhibition at Receptor Subtypes ETA) [%] | inhibition at 10 µM (ETB; @ 10 μM, read-out: Binding Assay % Inhibition at Receptor Subtypes ETB) [%]
1 | CC[C@H](C)[C@H](NC(=O)[C@@H]1CCCN1C(=O)[C@H](CC(N)=O)NC(=O)[C@H](CC(C)C)NC(=O)[C@@H](Cc1ccccc1)NC(C)=O)C(=O)N[C@@H](Cc1c[nH]c2ccccc12)C(=O)O [Example 90, Ac--D--Phe--Leu--Asn--Pro--Ile--Trp] (Ac-[dF]LNPIW-OH) | 5.70 | 5.55 | – | –
2 | CC[C@H](C)[C@H](NC(=O)[C@@H](NC(=O)[C@H](CC(=O)O)NC(=O)[C@H](CC(C)C)NC(=O)[C@H](NC(C)=O)C(c1ccccc1)c1ccccc1)C(C)C)C(=O)N[C@@H](Cc1c[nH]c2ccccc12)C(=O)O [Example 81, Ac--D--Dip--Leu--Asp--Val--Ile--Trp] (Ac-[dDip]LDVIW-OH) | 7.82 | 7.10 | – | –
3 | CC[C@H](C)[C@H](NC(=O)[C@H](CC(=O)O)NC(=O)[C@H](CC(C)C)NC(=O)[C@@H](Cc1ccccc1)NC(C)=O)C(=O)N[C@H](C(=O)N[C@@H](Cc1c[nH]c2ccccc12)C(=O)O)[C@@H](C)CC [Example 1, Ac--D--Phe--Leu--Asp--Ile--Ile--Trp] (Ac-[dF]LDIIW-OH) | – | 5.48 | – | –
4 | CC[C@H](C)[C@H](NC(=O)[C@H](CC(=O)O)NC(=O)[C@H](CCCN)NC(=O)[C@@H](Cc1ccccc1)NC(C)=O)C(=O)N[C@H](C(=O)N[C@@H](Cc1c[nH]c2ccccc12)C(=O)O)[C@@H](C)CC [Example 8, Ac--D--Phe--Orn--Asp--Ile--Ile--Trp] (Ac-[dF][Orn]DIIW-OH) | – | 5.40 | – | –
5 | CC[C@H](C)[C@H](NC(=O)[C@H](CC(=O)O)NC(=O)[C@@H](Cc1ccccc1)NC(=O)[C@@H](Cc1ccccc1)NC(C)=O)C(=O)N[C@H](C(=O)N[C@@H](Cc1c[nH]c2ccccc12)C(=O)O)[C@@H](C)CC [Example 61, Ac--D--Phe--D--Phe--Asp--Ile--Ile--Trp] (Ac-[dF][dF]DIIW-OH) | – | 8.00 | – | –
6 | CC[C@H](C)[C@H](NC(=O)[C@H](Cc1ccccc1)NC(=O)[C@H](CC(C)C)NC(=O)[C@@H](Cc1ccccc1)NC(C)=O)C(=O)N[C@H](C(=O)N[C@@H](Cc1c[nH]c2ccccc12)C(=O)O)[C@@H](C)CC [Example 67, Ac--D--Phe--Leu--Phe--Ile--Ile--Trp] (Ac-[dF]LFIIW-OH) | – | 7.46 | – | –
7 | CC[C@H](C)[C@H](NC(=O)[C@H](CC(=O)O)NC(=O)[C@H](Cc1ccccc1)NC(=O)[C@@H](Cc1ccccc1)NC(C)=O)C(=O)N[C@H](C(=O)N[C@@H](Cc1c[nH]c2ccccc12)C(=O)O)[C@@H](C)CC [Example 60, Ac--D--Phe--Phe--Asp--Ile--Ile--Trp] (Ac-[dF]FDIIW-OH) | – | 6.52 | – | –
8 | CC[C@H](C)[C@H](NC(=O)[C@H](CC(=O)O)NC(=O)[C@H](CC(C)C)NC(=O)[C@H](N)C(c1ccccc1)c1ccccc1)C(=O)N[C@H](C(=O)N[C@@H](Cc1c[nH]c2ccccc12)C(=O)O)[C@@H](C)CC [Example 49, D--Dip--Leu--Asp--Ile--Ile--Trp] (H-[dDip]LDIIW-OH) | 5.68 | – | – | –

Continued, values first:

Row | pIC50 (ETA) | pIC50 (ETB) | inhibition at 10 µM (ETA; @ 10 μM, read-out: Binding Assay % Inhibition at Receptor Subtypes ETA) [%] | inhibition at 10 µM (ETB; @ 10 μM, read-out: Binding Assay % Inhibition at Receptor Subtypes ETB) [%] | Structure (SMILES)
9 | 5.10 | < 6.00 | – | – | CC[C@H](C)[C@H](NC(=O)[C@H](CC(=O)O)NC(=O)[C@H](CC(C)C)NC(=O)[C@@H](Cc1ccccc1)NC(C)=O)C(=O)N[C@@H](C)C(=O)N[C@@H](Cc1c[nH]c2ccccc12)C(=O)O [Example 82, Ac--D--Phe--Leu--Asp--Ile--Ala--Trp] (Ac-[dF]LDIAW-OH)
10 | 6.00 | 8.10 | – | – | CC[C@H](C)[C@H](NC(=O)[C@H](Cc1ccccc1)NC(=O)[C@H](CC(C)C)NC(=O)[C@H](NC(C)=O)C(c1ccccc1)c1ccccc1)C(=O)N[C@H](C(=O)N[C@@H](Cc1c[nH]c2ccccc12)C(=O)O)[C@@H](C)CC [Example 16, Ac--D--Dip--Leu--Phe--Ile--Ile--Trp] (Ac-[dDip]LFIIW-OH)
11 | 5.22 | 5.22 | – | – | CC[C@H](C)[C@H](NC(=O)[C@H](CC(=O)O)NC(=O)[C@H](CC(C)C)NC(=O)[C@H](NC(=O)OCC1c2ccccc2-c2ccccc21)C(c1ccccc1)c1ccccc1)C(=O)N[C@H](C(=O)N[C@@H](Cc1c[nH]c2ccccc12)C(=O)O)[C@@H](C)CC [Example 30, Fmoc--D--Dip--Leu--Asp--Ile--Ile--Trp] (Fmoc-[dDip]LDIIW-OH)
12 | 5.74 | 5.70 | – | – | CCC(=O)N[C@@H](C(=O)N[C@@H](CC(C)C)C(=O)N[C@@H](CC(=O)O)C(=O)N[C@H](C(=O)N[C@H](C(=O)N[C@@H](Cc1c[nH]c2ccccc12)C(=O)O)[C@@H](C)CC)[C@@H](C)CC)C(c1ccccc1)c1ccccc1 [Example 31, Et--D--Dip--Leu--Asp--Ile--Ile--Trp] (Propionyl-[dDip]LDIIW-OH)
13 | 6.60 | 6.05 | – | – | CC[C@H](C)[C@H](NC(=O)[C@H](CC(=O)O)NC(=O)[C@H](CC(C)C)NC(=O)[C@H](NC(=O)C(F)(F)F)C(c1ccccc1)c1ccccc1)C(=O)N[C@H](C(=O)N[C@@H](Cc1c[nH]c2ccccc12)C(=O)O)[C@@H](C)CC [Example 39, CF3 CO--D--Dip--Leu--Asp--Ile--Ile--Trp] (Tfa-[dDip]LDIIW-OH)
14 | < 6.00 | 6.60 | – | – | CC[C@H](C)[C@H](NC(=O)[C@H](CC(=O)O)NC(=O)[C@H](NC(C)=O)C(c1ccccc1)c1ccccc1)C(=O)N[C@H](C(=O)N[C@@H](Cc1c[nH]c2ccccc12)C(=O)O)[C@@H](C)CC [Example 94, Ac--D--Dip--Asp--Ile--Ile--Trp] (Ac-[dDip]DIIW-OH; C-terminus assumed)
15 | 7.01 | 6.20 | – | – | CC[C@H](C)[C@H](NC(=O)[C@H](CC(=O)O)NC(=O)[C@H](CC(C)C)NC(=O)[C@H](NC(C)=O)C(c1ccccc1)c1ccccc1)C(=O)N[C@H](C(=O)N[C@@H](Cc1c[nH]c2ccccc12)C(=O)O)C(C)C [Example 86, Ac--D--Dip--Leu--Asp--Ile--Val--Trp] (Ac-[dDip]LDIVW-OH)
16 | – | – | 37.4 | 64.7 | CC[C@H](C)[C@H](NC(=O)[C@H](Cc1ccccc1)NC(=O)[C@H](CC(=O)O)NC(=O)[C@@H](Cc1ccccc1)NC(C)=O)C(=O)N[C@@H](Cc1c[nH]c2ccccc12)C(=O)O [Example 93, Ac--D--Phe--Asp--Phe--Ile--Trp] (Ac-[dF]DFIW-OH)
17 | 5.10 | 6.46 | – | – | CC[C@H](C)[C@H](NC(=O)[C@H](Cc1ccc(O)cc1)NC(=O)[C@H](N)C(c1ccccc1)c1ccccc1)C(=O)N[C@H](C(=O)N[C@@H](Cc1c[nH]c2ccccc12)C(=O)O)[C@@H](C)CC [Example 95, D--Dip--Tyr--Ile--Ile--Trp] (H-[dDip]YIIW-OH)
18 | 5.46 | 6.48 | – | – | CC[C@H](C)[C@H](NC(=O)[C@H](C)NC(=O)[C@H](CC(=O)O)NC(=O)[C@H](CC(C)C)NC(=O)[C@@H](Cc1ccccc1)NC(C)=O)C(=O)N[C@@H](Cc1c[nH]c2ccccc12)C(=O)O [Example 73, Ac--D--Phe--Leu--Asp--Ala--Ile--Trp] (Ac-[dF]LDAIW-OH)
19 | 5.47 | 6.70 | – | – | CC[C@H](C)[C@H](NC(=O)[C@H](CC(=O)O)NC(=O)[C@H](CC(C)C)NC(=O)[C@H](NC(=O)CC1CCCCC1)C(c1ccccc1)c1ccccc1)C(=O)N[C@H](C(=O)N[C@@H](Cc1c[nH]c2ccccc12)C(=O)O)[C@@H](C)CC [Example 34, Cxl--D--Dip--Leu--Asp--Ile--Ile--Trp] (Cyclohexylacetyl-[dDip]LDIIW-OH)
20 | 6.40 | – | – | – | CC[C@H](C)[C@H](NC(=O)[C@H](CC(=O)O)NC(=O)[C@H](CC(C)C)NC(=O)[C@@H](Cc1ccc(O)cc1)NC(C)=O)C(=O)N[C@H](C(=O)N[C@@H](Cc1c[nH]c2ccccc12)C(=O)O)[C@@H](C)CC [Example 10, Ac--D--Tyr--Leu--Asp--Ile--Ile--Trp] (Ac-[dY]LDIIW-OH)
